Results as given in patent EP1061957B1, “MANGANESE (II) CHELATES WITH HIGH RELAXIVITY IN SERUM” (BRACCO S.p.A., priority 1998, dated 1999).
Read-outs that look alike come from different tables or passages of the source.

Columns and labels:
mouse [1] = conditions: literature value, cited from earlier work
[2] = Relaxivity in human serum reconstituted from Seronorm Human; format: physicochemical; conditions: human serum reconstituted from lyophilized Seronorm Human (Nycomed Pharma)
Procedure: The relaxivity of the compounds of the invention was measured both in saline solution and in human serum, reconstituted from Seronorm^(R) Human (Nycomed Pharma), lyophilized human serum.

[3] = thermodynamic stability constant; from Smith and Martell, Critical Stability Constants, Vol. 6; cited from earlier work
mouse [4] = assay: Acute toxicity, DL50 in the mouse; format: in vivo; conditions: i.v.
[5] = Thermodynamic stability constant in aqueous solution, potentiometric method; format: physicochemical; conditions: 20°C, 0.1 M KCl aqueous solution

Molecule | DL50 (mouse [1]; i.v.) | Relaxivity Seronorm Human r1 [2] | DL50 (mouse [1]; i.p.) | Log KML [3] | DL50 (mouse [4]) | Log KML [5]
[Cl][Mn][Cl] [MnCl2] | 0.25 - 0.30 ^(1) mmol/kg | 53 ^(3) mM^-1s^-1 |  |  |  | 
Mn-EDTA |  | 10 ^(3) mM^-1s^-1 | 5.9 ^(2) mmol/kg | 13.88 ^(2) |  | 
Manganese complex(II) of N,N'-1,2-ethanediylbis[N-(carboxymethyl)-O-(phenylmethyl) -D,L-serine] salified with 1-deoxy-1-(methyl amino) -D-glucitol (1:2) [EXAMPLE 1] |  | 36 ^(3) mM^-1s^-1 |  |  | 4.5 mmol/kg | 13.8 ± 0.1
